Values joined by “and” are separate entries in the source; they are usually repeats but may differ in a detail not shown here. Identical values can stand only once.
Tests used:
Ku 70/80 = target: T1, Ku 70/80 (Homo sapiens, UniProt P12956+P13010); test: EMSA Ku–DNA binding inhibition; details: 32P-labeled 30-bp duplex DNA, purified Ku 70/80, mean and SD of triplicate
T1 construct: made in house; host or cells: baculovirus-infected Sf9 cells
Protocol: (§1) The inhibitory activity of Ku-DBis on Ku-DNA binding was evaluated in vitro using Electrophoretic mobility shift assays (EMSA) with a [^32P]-labeled 30-bp duplex DNA and purified Ku 70/80. Kinase assays were performed to measure the DNA-dependent transfer of [^32P] from γ-[^32P] ATP to a synthetic p53-based peptide substrate, both as previously described. Both EMSA and DNA-PK inhibitor titration assays were performed in triplicate. Data were fit to standard binding curves using GraphPad Prism to determine IC50 values.

DNA-PK = target: T2, DNA-PK (Homo sapiens, UniProt P12956+P13010); test: DNA-PK kinase assay (phosphate transfer to p53 peptide); assay type: biochemical; details: for IC50: DNA-dependent phosphate transfer to synthetic p53 peptide, purified DNA-PK, mean and SD of triplicate
T2 construct: made in house; Ku 70/80 from baculovirus-infected Sf9 cells
T2 sequence (P12956 whole entry): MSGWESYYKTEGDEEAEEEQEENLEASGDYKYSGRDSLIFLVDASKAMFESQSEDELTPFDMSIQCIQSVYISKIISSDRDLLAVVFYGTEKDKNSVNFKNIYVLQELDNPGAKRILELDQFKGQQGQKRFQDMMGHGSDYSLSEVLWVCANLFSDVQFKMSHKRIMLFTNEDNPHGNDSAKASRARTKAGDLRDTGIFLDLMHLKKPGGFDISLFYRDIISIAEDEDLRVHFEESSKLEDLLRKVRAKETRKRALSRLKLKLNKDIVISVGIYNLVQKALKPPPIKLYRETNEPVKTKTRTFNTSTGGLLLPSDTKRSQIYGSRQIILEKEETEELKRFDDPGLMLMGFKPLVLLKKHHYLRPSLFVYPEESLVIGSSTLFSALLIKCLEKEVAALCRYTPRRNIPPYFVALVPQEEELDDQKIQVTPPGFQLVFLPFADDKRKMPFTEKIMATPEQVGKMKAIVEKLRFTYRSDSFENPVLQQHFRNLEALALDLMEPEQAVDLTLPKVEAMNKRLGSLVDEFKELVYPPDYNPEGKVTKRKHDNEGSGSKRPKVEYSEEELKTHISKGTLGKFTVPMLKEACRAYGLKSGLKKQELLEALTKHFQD
T2 sequence (P13010 whole entry): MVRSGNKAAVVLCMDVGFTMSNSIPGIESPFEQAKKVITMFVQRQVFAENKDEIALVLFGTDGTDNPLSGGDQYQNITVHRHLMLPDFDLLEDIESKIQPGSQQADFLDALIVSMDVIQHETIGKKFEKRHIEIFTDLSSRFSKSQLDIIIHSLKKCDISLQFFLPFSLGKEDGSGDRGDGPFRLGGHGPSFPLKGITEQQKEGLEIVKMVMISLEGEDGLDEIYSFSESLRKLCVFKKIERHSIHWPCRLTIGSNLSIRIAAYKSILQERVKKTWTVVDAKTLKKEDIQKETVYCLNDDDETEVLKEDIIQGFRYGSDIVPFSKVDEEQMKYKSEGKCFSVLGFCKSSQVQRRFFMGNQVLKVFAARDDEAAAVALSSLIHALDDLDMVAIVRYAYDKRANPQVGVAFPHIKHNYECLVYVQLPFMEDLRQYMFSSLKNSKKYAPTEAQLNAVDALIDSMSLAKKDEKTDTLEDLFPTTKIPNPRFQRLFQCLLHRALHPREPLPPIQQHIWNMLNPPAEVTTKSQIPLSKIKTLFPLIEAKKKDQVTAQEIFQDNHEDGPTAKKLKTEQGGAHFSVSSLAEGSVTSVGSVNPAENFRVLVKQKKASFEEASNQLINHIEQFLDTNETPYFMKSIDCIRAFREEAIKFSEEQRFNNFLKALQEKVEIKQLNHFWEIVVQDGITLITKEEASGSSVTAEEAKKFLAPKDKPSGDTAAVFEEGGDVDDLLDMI
Protocol: as §1

H460 NSCLC cells = test: Cellular uptake by HPLC; assay type: in vitro ADME, Human; details: H460, 10 µM, media with 10% FBS
Protocol: Cellular uptake was evaluated in two NSCLC cell lines, H460 and A549. Cells were seeded into 6-well plates at a density of 1 × 10^6 cells per well and cultured as monolayers at 37 °C and 5% CO2 for 18–24 h. Ku-DBis were added to the media at a concentration of 10 µM and incubation continued for the times indicated. Media were removed, cells were washed 3 times with PBS, 1 mL of methanol was added to each well, and cells were agitated overnight at 4 °C. The methanol was collected, and wells were washed with an additional 1 mL of methanol that was then pooled with the original. The methanol extracts were then dried under vacuum, resuspended in methanol, and analyzed by HPLC using a 250 × 4.6 and 5 μm C-18 reverse phase column with 1% TFA mobile phase in acetonitrile (ACN) gradient elution. Absorption was monitored at 425 nm, HPLC peaks were quantified using a standard curve, and picomoles of compound per million cells was calculated.

A549 = test: CCK-8 cell viability, single agent; assay type: cell-based, Human
Protocol: (§2) Cell metabolism/viability was assessed using a mitochondrial metabolism assay (CCK-8) kit (Cell Counting Kit-8, Cat: CK04, Dojindo Laboratories, Rockville, MD, USA) as previously described. Briefly, cells were seeded at a density of 3 × 10^3 cells per well in 96-well plates and allowed to adhere and stretch for 18–24 h prior to treatment. Cells were pre-treated with Ku-DBi for 24 h before bleomycin treatments. Subsequently, cells were incubated for an additional 48 h at 37 °C after which CCK-8 assay was performed. The absorbance of the formed formazan product in each well was measured at 450 nm and compared to vehicle-treated controls to determine percent cell viability. The results represent the average and SEM of triplicate determinations.

H1299 = test: CCK-8 cell viability, single agent; assay type: cell-based, Human
Protocol: as §2

H23 = test: CCK-8 cell viability, single agent; assay type: cell-based, Human
Protocol: as §2

H460 = test: CCK-8 cell viability, single agent; assay type: cell-based, Human
Protocol: as §2

MDA-436 = test: CCK-8 cell viability, single agent; assay type: cell-based, Human
Protocol: as §2

MDA-468 = test: CCK-8 cell viability, single agent; assay type: cell-based, Human
Protocol: as §2

MDA-MB-436 = test: Bleomycin-sensitization activity, CCK-8; assay type: cell-based, Human; details: BRCA1 mutant MDA-MB-436
Protocol: as §2

MDA-MB-468 = test: Bleomycin-sensitization activity, CCK-8; assay type: cell-based, Human; details: BRCA1 wild-type MDA-MB-468
Protocol: as §2

T1 sequence (P12956 whole entry): as the sequence (P12956 whole entry) above
T1 sequence (P13010 whole entry): as the sequence (P13010 whole entry) above

COc1cccc(NC(=O)c2cc(-c3ccc(/C=C4\C(=O)N(c5cccc(C(=O)O)c5)c5ccccc54)o3)ccc2F)c1 [GL-3649]
IC50 (Ku 70/80): 3.55 ± 0.4 µM
IC50 (DNA-PK): 1.74 ± 0.61 µM

O=C(O)c1cccc(N2C(=O)/C(=C\c3ccc(-c4ccc(F)c(C(=O)Nc5cccc(OC(F)(F)F)c5)c4)o3)c3ccccc32)c1 [GL-3618]
IC50 (Ku 70/80): 3.36 ± 0.89 µM
IC50 (DNA-PK): 1.72 ± 0.15 µM
Cellular uptake, fold more efficient than methoxy-derivatives 3395 and 3649 (H460 NSCLC cells): ~ 3 fold

O=c1cc(N2CCOCC2)oc2c(-c3cccc4c3sc3ccccc34)cccc12 [NU-7441, reference compound]
Cell Viability at 25 µM (A549; 25 µM): 13.6 ± 1.4 %ctrl
IC50 (A549; A549, CCK-8, 72 h, mean ± SD): ~4.5 µM
Cell Viability at 25 µM (H1299; 25 µM): 17.8 ± 5.4 %ctrl
IC50 (H1299; H1299, CCK-8, 72 h, mean ± SD): 4 ± 0.9 µM
Cell Viability at 25 µM (H23; 25 µM): 4.8 ± 0.5 %ctrl
Fold more sensitive than the other NSCLC lines (H23; ATM-null H23 cells): ~ 2 fold
IC50 (H23; H23, CCK-8, 72 h, mean ± SD): 2.2 ± 0.1 µM
Cell Viability at 25 µM (H460; 25 µM): 8.3 ± 0.1 %ctrl
IC50 (H460; H460, CCK-8, 72 h, mean ± SD): 4.8 ± 1 µM
Cell Viability at 25 µM (MDA-436; 25 µM): 17.8 ± 1.3 %ctrl
IC50 (MDA-436; MDA-436, CCK-8, 72 h, mean ± SD): 8.1 ± 0.9 µM
Cell Viability at 25 µM (MDA-468; 25 µM): 4.1 ± 0.9 %ctrl
IC50 (MDA-468; MDA-468, CCK-8, 72 h, mean ± SD): 5.2 ± 0.4 µM
Change in sensitivity to bleomycin (MDA-MB-436): decrease in sensitivity to bleomycin
Change in sensitivity to bleomycin (MDA-MB-468): increase in sensitivity

COc1cccc(NC(=O)c2cc(-c3ccc(/C=C4\C(=O)N(c5cccc(C(=O)O)c5)c5ccccc54)o3)ccc2OC)c1 [GL-3395]
IC50 (Ku 70/80): 2.4 µM and 2.41 µM
DNA-PK inhibitory activity, fold more active than fluoro-modified counterparts (3618 and 3649) (DNA-PK): ~ 2.5 fold
IC50 (DNA-PK): 0.77 ± 0.24 µM

Source: PMC11475570, “Impact of Optimized Ku–DNA Binding Inhibitors on the Cellular and In Vivo DNA Damage Response” (Cancers, 2024)
